One data set concerns Aurora A. As to conditions: ref 59; read-out: Aurora A IC50 (Published); cited from earlier work.
For a further data set, the target named is T1, Aurora A/TPX2^1–43 (Homo sapiens, UniProt O14965).
T1 sequence (O14965 1-403): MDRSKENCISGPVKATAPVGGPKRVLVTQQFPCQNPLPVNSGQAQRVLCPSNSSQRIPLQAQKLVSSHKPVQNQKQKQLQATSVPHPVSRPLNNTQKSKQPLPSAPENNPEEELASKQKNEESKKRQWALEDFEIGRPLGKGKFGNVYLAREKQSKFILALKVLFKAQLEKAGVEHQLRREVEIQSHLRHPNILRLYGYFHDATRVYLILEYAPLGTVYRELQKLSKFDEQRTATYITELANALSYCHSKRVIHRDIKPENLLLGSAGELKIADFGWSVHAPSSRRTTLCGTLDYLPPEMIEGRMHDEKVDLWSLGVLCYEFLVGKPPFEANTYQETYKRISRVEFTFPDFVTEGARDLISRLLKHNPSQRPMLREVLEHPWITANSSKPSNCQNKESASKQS
T1 sequence (Q9ULW0 1-43 partner limits assumed): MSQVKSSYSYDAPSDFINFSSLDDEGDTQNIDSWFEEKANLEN
Briefly: Aurora A/TPX2^1–43 kinase assay (ADP-Glo). In general terms: In ADP-Glo the light output rises with the ADP produced.

The next data set concerns Aurora B. As to conditions: ref 59; read-out: Aurora B IC50 (Published); cited from earlier work.
The target in the next data set is T2, Aurora B/INCENP^783–918 (Homo sapiens, UniProt Q96GD4).
T2 construct: purchased SignalChem
Briefly: Aurora B/INCENP^783–918 kinase assay (ADP-Glo). The data set is classed as biochemical.

Data set [1] concerns the target T3, full-length human Aurora A (Homo sapiens, UniProt O14965).
T3 sequence (O14965 1-403): T1 sequence (O14965 1-403)
Briefly: Aurora A kinase assay (ADP-Glo, Kemptide substrate).

Data set [2] deals with HeLa, RPE1, and U2OS cells. As to the kind of experiment: Cellular proliferation analysis (ATPLite, 24 h). In general terms: Cellular ATP, detected with luciferase, serves as a proxy for viable cell number.
In data set [3] the test system is pH3(Ser 28) in HeLa cells. Briefly: Substrate phosphorylation immunofluorescence assay, pH3(Ser 28), HeLa. Type of data set: cell-based, human. As to conditions: 8 h inhibitor treatment.
Protocol: After 8 h cells were fixed with 4% PFA for 20 min at room temperature. The fixed cells were washed with PBS. For immunostaining, cells were permeabilized and blocked with PBS containing 10% normal donkey serum (Jackson ImmunoResearch) and 0.1% Triton-X100 for 1 h at room temperature. Primary antibodies against phospho-LATS2 (Ser 83), phospho-histone H3(Ser 28), and anti-phospho-MPM2 (see Table S3 in Supplementary Material) were incubated for 1 h at room temperature. […] Cells were then washed twice with PBS containing 0.1% Triton-X100. […] Fifty fields per well were imaged with quadruplicate wells for each condition. Image analysis was done using the CV7000 image analysis software (Yokogawa Electric Corporation). Between 100 and 1,000 mitotic cells per condition were segmented applying object identification parameters to select for bright MPM2 labeling. Using a nuclear identifier protocol, minimum intensity thresholds were set for pLATS2(Ser 83) and the pH3(Ser 28) signals, and the resulting identified objects were eroded, dilated, and filtered for size by user-defined thresholds. […] The same thresholds were applied for all of the inhibitor-treated samples, which were processed, imaged, and analyzed in parallel with control DMSO-treated cells. Data were fit using a four-parameter, variable slope fit in Prism (GraphPad).
Another data set deals with HeLa cells. Briefly: Live cell-activated caspase 3/7 assay. Type of data set: cell-based, human. As to conditions: within 24 h of treatment. The method, then:
HeLa cells (6,000/well) were seeded in 96-well μCLEAR plates (Greiner) in 100 μL DMEM plus serum, and incubated for 16 h at 37°C and 5% CO2. […] After 24 h 2 μM CellEvent Caspase-3/7 Green Reagent (Life Technologies), and NucBlue Live ReadyProbes Reagent (Hoechst 33342; Life Technologies) were added. Cells were imaged after 60 min on a CV7000 spinning disk confocal system (Yokogawa Electric Corporation) with a 20 × 0.75 NA U-PlanApo objective and 2560 × 2160 sCMOS camera with 2 × 2 binning. The imaging chamber was maintained at 37°C and 5% CO2. Six to eight fields/well were imaged, with duplicate wells for each condition. 3 μm × 2 μm z-sections in the blue (40% power, 300 ms, 35% gain) and green (40% power, 300 ms, 35% gain) channels were captured in each field. The apoptotic fraction was calculated by dividing the number of cells fluorescing at 530 nm (corresponding to the cleaved caspase reporter reagent) by the number of nuclei (Hoechst staining). Image analysis was done using the CV7000 image analysis software (Yokogawa Electric Corporation).

In data set [4] the test system is pLATS2(Ser 83) in HeLa cells. As to the kind of experiment: Substrate phosphorylation immunofluorescence assay, pLATS2(Ser 83), HeLa. Type of data set: cell-based, human. Conditions: Homo sapiens, HeLa, 8 h, read-out: pLATS2 (Ser83) IC50, HeLa; 8 h inhibitor treatment. The method, then: We employed the protocol described in Figure 3D to analyze substrate phosphorylation in HeLa cells following treatment with all 10 inhibitors in dose–response. Asynchronous cells were incubated with vehicle (DMSO) or different inhibitor doses for 8 h and then fixed and labeled with a mixture of three antibodies directed against pLATS2(Ser 83), pH3(Ser 28), and MPM2 [which detects mitotic phosphoepitopes; ([86])]. While both the anti-pLATS2(Ser 83) and MPM2 antibodies are mouse monoclonals, they are of different IgG subclasses [IgG2b for anti-pLATS2(Ser 83) and IgG1 for MPM2], and can thus be detected with subclass-specific secondary antibodies (Table S3 in Supplementary Material).
In control mitotic cells, pLATS2(Ser 83) is concentrated in foci around the spindle poles (Figure 3E; top row – green arrow) and pH3(Ser 28) is on the mitotic chromatin (Figure 3E; top row – red arrow). Selective kinase inhibition should result in loss of one signal but not the other, as illustrated by the example images for specific conditions in Figure 3E (middle and bottom rows). Cells were imaged in 4 channels to visualize pLATS2(Ser 83), pH3(Ser 28), MPM2, and DNA (labeled with Hoechst) and mitotic cells were segmented based on their bright MPM2 labeling (Figure 3E). Intensity and area thresholds were set to select the pLATS2(Ser 83) foci and the pH3(Ser 28)-labeled chromatin in their respective channels in DMSO-treated control cells and the same thresholds were applied for inhibitor-treated cells. The mean fluorescence intensity per pixel was measured to assess the activities of the kinases targeting these two substrate phosphorylation sites.
Twelve thousand HeLa cells, 10,000 U2OS cells, or 8,000 RPE1 cells were seeded into 96-well glass-bottom Sensoplates (Greiner) 16 h before inhibitor addition. Prior to seeding, the glass-bottom plates were coated with poly-L-lysine (Sigma). […] After 8 h cells were fixed with 4% PFA for 20 min at room temperature. The fixed cells were washed with PBS. For immunostaining, cells were permeabilized and blocked with PBS containing 10% normal donkey serum (Jackson ImmunoResearch) and 0.1% Triton-X100 for 1 h at room temperature. Primary antibodies against phospho-LATS2 (Ser 83), phospho-histone H3(Ser 28), and anti-phospho-MPM2 (see Table S3 in Supplementary Material) were incubated for 1 h at room temperature. […] Cells were then washed twice with PBS containing 0.1% Triton-X100. Image acquisition in four channels was performed using a CV7000 spinning disk confocal system (Yokogawa Electric Corporation) with a 40 × 0.95 NA U-PlanApo objective and 2560 × 2160 pixel sCMOS camera. […] Fifty fields per well were imaged with quadruplicate wells for each condition. Image analysis was done using the CV7000 image analysis software (Yokogawa Electric Corporation). Between 100 and 1,000 mitotic cells per condition were segmented applying object identification parameters to select for bright MPM2 labeling. Using a nuclear identifier protocol, minimum intensity thresholds were set for pLATS2(Ser 83) and the pH3(Ser 28) signals, and the resulting identified objects were eroded, dilated, and filtered for size by user-defined thresholds. For only the MPM2-positive mitotic cells, the mean fluorescence intensity of the identified pLATS2(Ser 83) and pH3(Ser 28) objects was measured, and the average intensity per cell per well was calculated. The same thresholds were applied for all of the inhibitor-treated samples, which were processed, imaged, and analyzed in parallel with control DMSO-treated cells. Data were fit using a four-parameter, variable slope fit in Prism (GraphPad). Primary and secondary antibody dilutions can be found in Table S3 in Supplementary Material.

Setting [5] is: fold difference in potency calculated by dividing Ki values.

T2 sequence (Q96GD4 whole entry): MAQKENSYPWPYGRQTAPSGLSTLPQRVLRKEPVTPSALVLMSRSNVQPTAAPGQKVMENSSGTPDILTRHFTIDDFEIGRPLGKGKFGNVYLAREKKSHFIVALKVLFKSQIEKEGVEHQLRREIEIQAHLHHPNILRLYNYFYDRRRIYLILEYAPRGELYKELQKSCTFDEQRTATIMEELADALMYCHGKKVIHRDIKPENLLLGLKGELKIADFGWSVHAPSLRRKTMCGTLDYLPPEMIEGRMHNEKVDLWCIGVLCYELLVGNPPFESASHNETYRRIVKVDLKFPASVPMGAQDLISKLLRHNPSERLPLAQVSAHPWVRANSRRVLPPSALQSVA
T2 sequence (Q9NQS7 783-918 partner limits assumed): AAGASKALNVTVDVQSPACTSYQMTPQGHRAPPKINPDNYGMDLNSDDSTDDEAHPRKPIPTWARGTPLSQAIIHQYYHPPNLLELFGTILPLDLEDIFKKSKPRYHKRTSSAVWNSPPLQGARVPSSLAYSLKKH

`CCN1CCN(C(=O)Cc2ccc(Nc3ncc(F)c(Nc4ccc(C(=O)Nc5ccccc5Cl)cc4)n3)cc2)CC1` [Genentech Aurora Inhibitor 1]: the figures for the concentration for half-maximal inhibition (IC50) (with Aurora A; in the data set on Aurora B; in data set [4]) were 3.4 nM, 3400 nM and 490 nM, respectively. For the same compound, the Ki was 0.24 ± 0.02 nM at Aurora A/TPX2^1–43; 156 ± 33.7 nM at Aurora B/INCENP^783–918; 0.57 ± 0.06 nM in data set [1] (Aurora A Ki Mean ± SD, [ATP] = Km(ATP) (35 μM), Ki calculated from IC50 with tight-binding equation). Also, the “Increase of affinity for Aurora A by TPX2^1–43” value on Aurora A/TPX2^1–43 (Aurora A Ki versus Aurora A/TPX2^1–43 Ki) is 2.5 fold. Also, the “Selectivity ratio Aur A-TPX2^1–43 versus Aur B-INCENP^783–918” value on Aurora A/TPX2^1–43 (setting [5]) is reported as 654 fold. In addition, in data set [1] (setting [5]), the “Selectivity ratio Aur A versus Aur A-TPX2^1–43” value is given as 0.4 fold. Also, in data set [1] (setting [5]), the “Selectivity ratio Aur A versus Aur B-INCENP^783–918” value is on record as 274 fold. Further, the “Toxicity / cytotoxicity (cellular proliferation)” value in [2] (HeLa, RPE1, U2OS, 24 h (Figure 4D, Figure S2B)) was “cytotoxic”. Moreover, the Effect on proliferation result in data set [2] (HeLa, within 24 h of treatment) is “significantly reduced proliferation”. For the same compound, the “Toxicity (reduced proliferation)” value in [2] (U2OS and RPE1 cells, 24 h) is “toxicity”. In addition, the “pHistone H3 (Ser28) IC50” value in [3] is on record as “NE@9 μM”; in data set [3] (listed as Genentech Aurora Inh 1), “NE (9 μM)”. In addition, in the data set with HeLa cells, the Apoptosis entry is listed as “apoptotic cell death”.

As a reminder, the IC50 is the concentration needed to halve the response being measured. As a reminder, the Ki is the equilibrium dissociation constant of an inhibitor or competing ligand from its target.

The values above are taken from article PMC4685510, “A Cell Biologist’s Field Guide to Aurora Kinase Inhibitors” (Frontiers in Oncology, 2015).
